Source: patent publication US20090088380A1, “GHRH ANALOGS AND THERAPEUTIC USES THEREOF” (priority 2007, published 2009)
“And” between values parts separate entries of the source, which are not always exact repeats. Equal entries are not always repeated. Non-standard residues stand in square brackets, D forms with d. Residues, ends and D or L forms follow the SMILES beside them.

Legend:
[1] = molecular target: T1, human GHRH receptor (Homo sapiens, UniProt Q02643); assay: 125I-GHRH competitive binding assay in BHK cell membrane preparations; conditions: in comparison with hGHRH(1-29)NH2, ratio IC50 hGHRH(1-29)-NH2/IC50 analog
T1 construct: expressed in transfected cells; host or cells: BHK (baby hamster kidney) 570 cells, membrane preparations
T1 sequence (Q02643 23-423): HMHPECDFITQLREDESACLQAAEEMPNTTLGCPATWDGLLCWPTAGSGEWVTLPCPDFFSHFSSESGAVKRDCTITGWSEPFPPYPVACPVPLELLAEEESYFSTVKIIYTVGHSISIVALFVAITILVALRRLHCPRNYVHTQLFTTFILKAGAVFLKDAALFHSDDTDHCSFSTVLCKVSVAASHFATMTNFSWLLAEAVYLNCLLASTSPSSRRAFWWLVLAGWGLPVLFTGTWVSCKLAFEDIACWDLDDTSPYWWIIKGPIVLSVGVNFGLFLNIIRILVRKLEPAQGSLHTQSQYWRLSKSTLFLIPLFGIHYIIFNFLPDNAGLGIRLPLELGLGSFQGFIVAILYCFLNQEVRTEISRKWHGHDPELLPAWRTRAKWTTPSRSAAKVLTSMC
Method: Non specific binding was determined in presence of 1 μM hGHRH(1-29)NH2. Incubation was carried out at equilibrium (23° C., 60 min) and stopped by centrifugation (12,000 g, 5 min, at 4° C.). The radioactivity content in pellets was determined by gamma counting. The affinity of hGHRH(1-29) NH2 was tested in each experiment to assess the validity of the assay and determine the relative affinity of the analogs.
Values represent the mean±SEM of 3 experiments performed in triplicate for the analogs and the mean±SEM of 2 experiments performed in triplicate for hGHRH(1-44) NH2.
For the binding assay results presented in Tables 8 to 11, values represent the mean±SEM of 8 independent experiments performed in triplicate for the analogs and the mean±SEM of 4 experiments performed in triplicate for hGHRH(1-29)NH2. […] The relative affinity was obtained by taking the ratio IC50 of hGHRH (1-29)-NH2/IC50 analog.

[2] = system: Leptin and adiponectin; assay: Phase II CKD: fat regulation (leptin, adiponectin); type: in vivo, human
Method: Leptin (ng/mL) and adiponectin (μg/mL) were measured at every visit from baseline to Day 28 as markers for regulating metabolism. Samples were analysed at the Department of Nephrology, Endocrinology and Metabolic Diseases, Silesian University School of Medicine, Katowice.

[3] = system: protein turnover; assay: Phase II, malnourished CKD subjects, 1 mg sc twice daily 28 days: 13C-leucine kinetics (protein turnover); type: in vivo, human; conditions: for Leucine oxidation: adjusted mean difference (analog-placebo): Day 28; for Leucine flux: mean (SD): normalised with body weight
Method: This was a randomized, double-blind, placebo-controlled, parallel-group, multi-centre study of the GHRH(1-29)NH2 synthetic analog in malnourished subjects with CKD. Twenty-six subjects were required to complete the study.
All study subjects were randomised in equal numbers to receive active GHRH(1-29)NH2 synthetic analog or an equivalent volume of placebo, by sc injection, twice daily for 28 days.
Vials of investigational product contained 1.4 mg of the GHRH(1-29)NH2 synthetic analog. This was reconstituted with 0.7 mL of water for injection and 0.5 mL of the resultant solution (1.0 mg of active substance) was administered, i.e. approximately 15 μg/kg. The diluent, water for injections, was obtained from commercial stock and labelled accordingly.
Leucine kinetics was measured on Day 0 and Day 29 by a primed-constant infusion technique during substrate and isotopic steady state. The priming dose consisted of 4.0 μmol/kg of L[1−^13C] leucine and 0.11 mg/kg of NaH^13CO3 and a sustaining infusion rate of L[1−^13C] leucine of 4.0 μmol/kg/h for 4 hours. The isotopes were purchased directly from Cambridge Isotope Laboratories.
A 1 mL sample of venous blood was taken before administration of the dose of isotope and at 180, 195, 210, 225 and 240 minutes after the start of infusion.
Breath samples were provided by blowing through a straw into Exetainer® tubes (evacuated 139 B blue tops). Breath samples were collected before the dose of isotope and at 180, 195, 210, 225 and 240 minutes after the start of infusion. Duplicate samples were collected. One sample was sent for analysis; the other was retained in case of loss or breakage. All retained samples were destroyed once the database was locked.

[4] = system: malnourished subjects with CKD; assay: Phase II CKD: vital signs; type: in vivo, human; conditions: for Diastolic blood pressure: mean (SD) / Heart rate: mean (SD) / Systolic blood pressure: mean (SD): Safety Analysis Set
Description: Mean systolic blood pressure was lower at Day 28 compared with baseline in the GHRH(1-29)NH2 synthetic analog group but higher compared with baseline in the placebo group (Table 37). […] Similarly, mean diastolic blood pressure was lower at Day 28 compared with baseline in the GHRH(1-29)NH2 synthetic analog group but this was not part of a trend.

[5] = ITT, Baseline, listed as GHRH(1-29)NH2 synthetic analog
[6] = ITT, listed as GHRH(1-29)NH2 synthetic analog

In the case of `CC[C@H](C)[C@H](NC(=O)[C@H](C)NC(=O)[C@H](CC(=O)O)NC(=O)[C@@H](C)NC(=O)[C@@H](N)Cc1ccc(O)cc1)C(=O)N[C@@H](Cc1ccccc1)C(=O)N[C@H](C(=O)N[C@@H](CC(N)=O)C(=O)N[C@@H](CO)C(=O)N[C@H](Cc1ccc(O)cc1)C(=O)N[C@@H](CCCNC(=N)N)C(=O)N[C@@H](CCCCN)C(=O)N[C@H](C(=O)N[C@@H](CC(C)C)C(=O)N[C@H](C)C(=O)N[C@@H](CCC(N)=O)C(=O)N[C@@H](CC(C)C)C(=O)N[C@@H](CO)C(=O)N[C@@H](C)C(=O)N[C@@H](CCCNC(=N)N)C(=O)N[C@@H](CCCCN)C(=O)N[C@@H](CCCCN)C(=O)N[C@@H](CC(C)C)C(=O)N[C@@H](CCC(N)=O)C(=O)N[C@@H](CC(=O)O)C(=O)N[C@H](C(=O)N[C@@H](CCSC)C(=O)N[C@@H](CO)C(=O)N[C@@H](CCCNC(=N)N)C(N)=O)[C@@H](C)CC)C(C)C)[C@@H](C)O` [GHRH analog #5, [D-Ala^2, D-Tyr^10, D-Ala^15, Lys^22] hGHRH(1-29)-NH2] (H-Y[dA]DAIFTNS[dY]RKVL[dA]QLSARKKLQDIMSR-NH2), the “Relative binding affinity (R1) in hGHRH-R BHK-expressing cells” value (shortened to “Relative binding affinity (R1)”) ([1]; listed as 5) is reported as 939 ± 249, the “Relative binding affinity (R1)” value ([1]; listed as GHRH analog # 5) is reported as 939 ± 249 and the “Relative binding affinity (R1)” value ([1]; listed as GHRH(1-29)NH2 synthetic analog) is reported as 939. For the same compound, the “Adiponectin: median (95% CI)” value ([2]; ITT, Baseline) was 20604 ng/mL, the “Leptin: mean (SD)” value ([2]; ITT, Baseline) was 23.80 (34.29) ng/mL and the “Adiponectin: median (95% CI)” value ([2]; ITT, Day 7) was 21293 (14535; 27438) ng/mL. The “Adiponectin: median (95% CI)” value ([2]; ITT, Day 14) was 21548 (15810; 27030) ng/mL, the “Adiponectin: median (95% CI)” value ([2]; ITT, Day 21) was 21905 (15810; 31365) ng/mL and the “Adiponectin: median (95% CI)” value ([2]; ITT, Day 28) was 20553 (16320; 27030) ng/mL. For the same compound, the “Leptin: mean (SD)” value ([2]; ITT, Day 28) was 16.81 (21.81) ng/mL, the “Leptin: ratio of means” value ([2]; ITT, Day 28, vs placebo) was 0.866 and the “Leptin reduction from baseline, range in all but two patients” value ([2]; day 28) was 10-70%. For the same compound, the “Mean leptin as % of the mean in placebo group” value ([2]; in vivo) was 70%, the “Leucine flux: mean (SD) change from baseline to Day 28” value ([3]; ITT) was 1.15 (30.09) μmol/kg · hr and the “Leucine flux: median change from baseline to Day 28” value ([3]; ITT) was -0.4 µmol/kg/h. For the same compound, the “Leucine oxidation: mean (SD) change from baseline to Day 28” value (“Leucine oxidation: mean (SD) change” below) ([3]; ITT) was 2.38 (5.66) μmol/kg · hr, the “Leucine oxidation: median change from baseline to Day 28” value ([3]; ITT) was 2.3 µmol/kg/h and the “Oxidation of flux: mean (SD) change from baseline to Day 28” value ([3]; ITT) was 2.64 (6.26) %. For the same compound, the “Oxidation of flux: median change from baseline to Day 28” value ([3]; ITT) was 3.8%, the “Protein breakdown: mean (SD) change from baseline to Day 28” value ([3]; ITT) was 1.16 (30.11) μmol/kg · hr and the “Protein breakdown: median change from baseline to Day 28” value ([3]; ITT) was -0.4 µmol/kg/h. For the same compound, the “Protein synthesis of flux: mean (SD) change from baseline to Day 28” value ([3]; ITT) was −2.64 (6.26) %, the “Protein synthesis of flux: median change from baseline to Day 28” value ([3]; ITT) was −3.8% and the “Protein synthesis: mean (SD) change from baseline to Day 28” value ([3]; ITT) was −1.22 (30.75) μmol/kg · hr. For the same compound, the “Protein synthesis: median change from baseline to Day 28” value ([3]; ITT) was -4.6 µmol/kg/h, the “Leucine flux: median” value ([3]; ITT, Baseline) was 98.3 µmol/kg/h and the “Leucine oxidation: mean (SD)” value ([3]; ITT, Baseline) was 7.74 μmol/kg · hr and 7.74 (4.51) μmol/kg · hr. The “Leucine oxidation: median” value ([3]; ITT, Baseline) was 5.8 µmol/kg/h, the “Oxidation of flux: mean (SD)” value ([3]; ITT, Baseline) was 7.61 (4.19) % and the “Oxidation of flux: median” value ([3]; ITT, Baseline) was 6.9%. For the same compound, the “Protein breakdown: mean (SD)” value ([3]; ITT, Baseline) was 97.45 (21.53) μmol/kg · hr, the “Protein breakdown: median” value ([3]; ITT, Baseline) was 94.2 µmol/kg/h and the “Protein synthesis of flux: mean (SD)” value ([3]; ITT, Baseline) was 92.39 (4.19) %. The “Protein synthesis of flux: median” value ([3]; ITT, Baseline) was 93.1%, the “Protein synthesis: mean (SD)” value ([3]; ITT, Baseline) was 93.71 (20.38) μmol/kg · hr and the “Protein synthesis: median” value ([3]; ITT, Baseline) was 88.9 µmol/kg/h. For the same compound, the “Leucine oxidation: mean (SD)” value [3, 5] was 7.74 µmol/kg/h, the “Protein breakdown: mean (SD)” value [3, 5] was 97.45 µmol/kg/h and the “Protein synthesis: mean (SD)” value [3, 5] was 93.71 µmol/kg/h. The “Leucine oxidation: adjusted mean difference (analog-placebo)” value ([3]; ITT) was 1.1 μmol/kg · hr, the “Leucine flux: mean (SD) change from baseline to Day 28” value [3, 6] was 1.15 µmol/kg/h and the “Leucine oxidation: mean (SD) change” value [3, 6] was 2.38 µmol/kg/h. The “Protein breakdown: mean (SD) change from baseline to Day 28” value [3, 6] was 1.16 µmol/kg/h, the Protein synthesis of flux: median change from baseline to Day 28 [3, 6] was -3.8% and the Protein synthesis: mean (SD) change from baseline to Day 28 [3, 6] was -1.22 µmol/kg/h. For the same compound, the “Leucine flux: mean (SD)” value ([3]; ITT, Baseline) was 101.46 (21.54) μmol/kg · hr, the “Leucine flux: mean (SD)” value [3, 5] was 101.46 µmol/kg/h and the “Leucine flux: adjusted mean difference” value ([3]; ITT, vs placebo) was 7.5 µmol/kg/h. The “Protein breakdown: adjusted mean difference” value ([3]; ITT, vs placebo) was 7.5 µmol/kg/h, the “Protein synthesis: adjusted mean difference” value ([3]; ITT, vs placebo) was 6.9 µmol/kg/h and the “Oxidation of flux: adjusted mean difference” value ([3]; ITT, vs placebo, ANCOVA assuming log-normal distribution) was 1.48%. For the same compound, the “Leucine oxidation: mean (SD) change” value ([3]; PP (Leucine Kinetic)) was 1.90 (6.24) μmol/kg · hr, the “Leucine oxidation: median change from baseline to Day 28” value ([3]; PP (Leucine Kinetic)) was 2.3 µmol/kg/h and the “Leucine oxidation: mean (SD)” value ([3]; PP (Leucine Kinetic), Baseline) was 7.81 (5.42) μmol/kg · hr. The “Leucine oxidation: median” value ([3]; PP (Leucine Kinetic), Baseline) was 5.6 µmol/kg/h, the “Leucine oxidation: adjusted mean difference (analog-placebo)” value ([3]; PP (Leucine Kinetic)) was 3.3 μmol/kg · hr and the “Mean systolic blood pressure” value ([4]; Day 7) was 136.4 mmHg. The “Mean systolic blood pressure” value ([4]; Day 14) was 139.9 mmHg, the “Mean systolic blood pressure” value ([4]; Day 21) was 143.1 mmHg and the “Diastolic blood pressure: mean (SD)” value ([4]; Baseline) was 82.7 (10.9) mmHg. For the same compound, the “Heart rate: mean (SD)” value ([4]; Baseline) was 77.7 (11.1) bpm, the “Systolic blood pressure: mean (SD)” value ([4]; Baseline) was 144.8 (16.0) mmHg and the “Diastolic blood pressure: mean (SD)” value ([4]; Day 28) was 76.7 (8.1) mmHg. For the same compound, the “Heart rate: mean (SD)” value ([4]; Day 28) was 76.4 (9.8) bpm, the “Systolic blood pressure: mean (SD)” value ([4]; Day 28) was 128.3 (16.5) mmHg and the “Mean systolic blood pressure” value ([4]; screening) was 142.0 mmHg.
